± gives the expanded uncertainty stated by the source.
Experiment: xn = mol fraction of the nth substance listed
Conditions: 101 kPa, Liquid

CN1CCOCC1 [N-methylmorpholine] + O
Conditions | mass density, 293.15 K [kg/m3] | mass density, 303.15 K [kg/m3] | mass density, 313.15 K [kg/m3] | viscosity, 293.15 K [mPa·s] | viscosity, 303.15 K [mPa·s] | viscosity, 313.15 K [mPa·s]
x1 = 0.0452 | 1002.38 ± 1 | 990.98 ± 1.1 | 985.04 ± 1.2 | 1.898 ± 0.17 | 1.594 ± 0.15 | 1.327 ± 0.13
x1 = 0.0942 | 1005.32 ± 1.1 | 993.65 ± 1.1 | 982.32 ± 1.2 | 2.577 ± 0.23 | 2.036 ± 0.19 | 1.715 ± 0.16
x1 = 0.1267 | 1003.31 ± 1.1 | 991.58 ± 1.1 | 980.45 ± 1.3 | 3.048 ± 0.27 | 2.451 ± 0.22 | 1.968 ± 0.18
x1 = 0.1763 | 1000.27 ± 1.1 | 988.46 ± 1.2 | 977.58 ± 1.3 | 3.562 ± 0.32 | 2.922 ± 0.26 | 2.348 ± 0.21
x1 = 0.2022 | 996.93 ± 1.1 | 985.14 ± 1.2 | 974.42 ± 1.4 | 3.777 ± 0.33 | 3.065 ± 0.27 | 2.482 ± 0.23
x1 = 0.2538 | 991.88 ± 1.2 | 980.12 ± 1.3 | 969.64 ± 1.4 | 4.115 ± 0.36 | 3.386 ± 0.3 | 2.703 ± 0.24
x1 = 0.2843 | 988.53 ± 1.2 | 976.81 ± 1.4 | 966.47 ± 1.5 | 4.238 ± 0.37 | 3.497 ± 0.31 | 2.838 ± 0.26
x1 = 0.3275 | 983.61 ± 1.3 | 971.96 ± 1.5 | 961.8 ± 1.6 | 4.395 ± 0.38 | 3.619 ± 0.32 | 2.908 ± 0.26
x1 = 0.3754 | 977.87 ± 1.4 | 966.31 ± 1.6 | 956.33 ± 1.7 | 4.439 ± 0.39 | 3.669 ± 0.32 | 2.901 ± 0.26
x1 = 0.4033 | 974.29 ± 1.5 | 962.77 ± 1.6 | 952.91 ± 1.7 | 4.429 ± 0.39 | 3.636 ± 0.32 | 2.869 ± 0.26
x1 = 0.4286 | 971.29 ± 1.5 | 959.83 ± 1.7 | 950.06 ± 1.8 | 4.406 ± 0.39 | 3.635 ± 0.32 | 2.869 ± 0.26
x1 = 0.4689 | 966.09 ± 1.6 | 954.72 ± 1.8 | 945.1 ± 1.9 | 4.331 ± 0.38 | 3.562 ± 0.32 | 2.798 ± 0.25
x1 = 0.4983 | 962.76 ± 1.7 | 951.45 ± 1.8 | 941.92 ± 1.9 | 4.241 ± 0.37 | 3.521 ± 0.31 | 2.758 ± 0.25
x1 = 0.5433 | 957.25 ± 1.8 | 946.05 ± 1.9 | 936.67 ± 2 | 4.065 ± 0.36 | 3.363 ± 0.3 | 2.602 ± 0.23
x1 = 0.5983 | 950.09 ± 1.9 | 939.74 ± 2 | 930.57 ± 2.1 | 3.798 ± 0.34 | 3.128 ± 0.28 | 2.388 ± 0.22
x1 = 0.6438 | 945.88 ± 2 | 934.89 ± 2.1 | 925.8 ± 2.2 | 3.544 ± 0.32 | 2.878 ± 0.26 | 2.244 ± 0.2
x1 = 0.6942 | 941.06 ± 2.1 | 931.06 ± 2.2 | 922.05 ± 2.3 | 3.187 ± 0.28 | 2.588 ± 0.23 | 2.031 ± 0.19
x1 = 0.7587 | 934.53 ± 2.2 | 924.36 ± 2.4 | 916.24 ± 2.5 | 2.792 ± 0.25 | 2.262 ± 0.21 | 1.764 ± 0.16
x1 = 0.8163 | 929.89 ± 2.4 | 920.39 ± 2.5 | 912.31 ± 2.5 | 2.323 ± 0.21 | 1.857 ± 0.17 | 1.495 ± 0.14
x1 = 0.8869 | 924.9 ± 2.5 | 915.52 ± 2.6 | 907.94 ± 2.7 | 1.791 ± 0.17 | 1.489 ± 0.14 | 1.222 ± 0.12
x1 = 0.9244 | 922.59 ± 2.6 | 913.29 ± 2.7 | 905.91 ± 2.7 | 1.503 ± 0.14 | 1.359 ± 0.13 | 1.077 ± 0.11
x1 = 0.9812 | 919.88 ± 2.6 | 910.58 ± 2.8 | 903.31 ± 2.8 | 1.166 ± 0.11 | 1.091 ± 0.11 | –

— the NIST ThermoML archive (doi:10.1021/je800197t)
